Calls of active or inactive are those of the source. No rule for the calls is given here.
Each compound was assayed against Serine/threonine-protein kinase mTOR (Homo sapiens) (UniProt P42345) (assay: binders of mTOR FRB domain, biophysical, NMR (AID 1648)). Details: NMR binding to FRB domain, chemical shift.
Sequence of Serine/threonine-protein kinase mTOR (Homo sapiens) (P42345 2015-2114): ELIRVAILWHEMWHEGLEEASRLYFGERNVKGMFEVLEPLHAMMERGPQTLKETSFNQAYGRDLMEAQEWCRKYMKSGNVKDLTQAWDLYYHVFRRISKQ

| Compound | Kd |
| --- | --- |
| C/C=C(\C)C(=O)O[C@H]1C[C@@H](OC(C)=O)[C@@]2(C(=O)OC)CO[C@@H]3C2[C@]12CO[C@](O)(C(=O)OC)[C@H]2[C@](C)(C12O[C@@]1(C)[C@H]1C[C@@H]2OC2OC=C[C@@]21O)[C@@H]3O (some centres not stated) | > 4 mM (inactive) |
| COc1cc(O)ccc1C(C)=O | > 4 mM (inactive) |
| O=C1NC(=Nc2ccc(O)cc2)S/C1=C/c1ccco1 | > 4 mM (inactive) |
| COc1cccc(NC(=O)c2nc3ncccn3n2)c1 | > 4 mM (inactive) |
| CN(C(=O)c1cc2cccnc2n(C)c1=O)c1ccccc1 | > 4 mM (inactive) |
| NC(=O)CS(=O)(=O)c1ccc2ccccc2c1 | > 4 mM (inactive) |
| CC(=O)O[C@@H]1CC2C(C)(C)C=CC(=O)[C@]2(C)C2CC[C@@]3(C)[C@H](c4ccoc4)OC(=O)C4OC43[C@@]21C (some centres not stated) | > 4 mM (inactive) |
| CCCCN1C(=O)C2CC/C(=N/O)CC2C1=O (configuration not stated) | > 4 mM (inactive) |
| NCc1ccccc1N1CCOCC1 | > 4 mM (inactive) |
| COc1ccc(C)cc1S(=O)(=O)NC1CCCC1 | > 4 mM (inactive) |
| Cc1nc(SCC#N)c2c(C)c(C)sc2n1 | > 4 mM (inactive) |
| CC(=O)NC(=S)Nc1ccccc1N1CCOCC1 | > 4 mM (inactive) |
| C#CCCCCCCCCCCCc1ccco1 | > 4 mM (inactive) |
| O=C(CCc1ccc(O)cc1)c1c(O)cc(O)cc1O | > 4 mM (inactive) |
| C=CCc1cc(C(=O)N2CCCCC2)ccc1O | > 4 mM (inactive) |
| O=C1NC(=Nc2ccccc2Cl)SC1(CO)CO | > 4 mM (inactive) |
| COc1ccc2nc(SCC(N)=O)[nH]c2c1 | > 4 mM (inactive) |
| CN(C)c1ccc2c(=O)[nH][nH]c(=O)c2c1 | > 4 mM (inactive) |
| Cc1nc2sc3c(c2c(=N)n1N)CC(C)(C)OC3 | > 4 mM (inactive) |
| c1csc(-c2nnc3ccccn23)c1 | > 4 mM (inactive) |
| O=C(Nc1cccnc1)c1ccc(Br)s1 | > 4 mM (inactive) |
| Cc1nc2cc(Cl)ccc2n1CCO | > 4 mM (inactive) |
| COc1ccccc1N1C(=N)SCC1=O | > 4 mM (inactive) |
| O=C(O)CCNc1n[nH]c(=O)[nH]c1=O | > 4 mM (inactive) |

| Compound | Kd |
| --- | --- |
| CC(NC(=O)c1ccco1)c1ccc2c(c1)OCCO2 (configuration not stated) | > 4 mM (inactive) |
| S=c1[nH]cnc2sccc12 | > 4 mM (inactive) |
| CC(=O)N1CCc2ccccc2C1CC(=O)O (configuration not stated) | > 4 mM (inactive) |
| O=C(NCCO)c1cc2ccccc2cc1O | > 4 mM (inactive) |
| NC(=NCCC[C@H](N)C(=O)O)NC(CCC(=O)O)C(=O)O (some centres not stated) | > 4 mM (inactive) |
| O=C(Nc1ccc2c(c1)OCO2)c1c(F)cccc1F | > 4 mM (inactive) |
| CCCCCC(=O)Cc1cc(O)cc(O)c1C(=O)Oc1cc(CC(=O)CCCCC)c(C(=O)O)c(OC)c1 | > 4 mM (inactive) |
| NC1=NN(c2ccccc2)C(=O)C1 | > 4 mM (inactive) |
| CN1CCC2(CC1)CC1CC3C=CC1(CN2)O3 (configuration not stated) | > 4 mM (inactive) |
| CNC(=O)c1ccccc1N | > 4 mM (inactive) |
| NC(=O)Cn1nnc(-c2ccc(C(F)(F)F)cc2)n1 | > 4 mM (inactive) |
| O=C1CCC(=O)N1c1ccc(F)cc1 | > 4 mM (inactive) |
| Nc1ncccc1OCc1ccccc1 | > 4 mM (inactive) |
| Cc1ccc2cccc(OC(=O)N3CCCC3)c2n1 | > 4 mM (inactive) |
| CCOC(=O)c1cc2ccccc2oc1=O | > 4 mM (inactive) |
| CC(=O)Nc1cccc(N2C(=O)CCC2=O)c1 | > 4 mM (inactive) |
| c1ccc(Cc2nnc3sc(-c4ccncc4)nn23)cc1 | > 4 mM (inactive) |
| Clc1ccccc1-c1nc(-c2cccnc2)no1 | > 4 mM (inactive) |
| CC1(C)CC2(C)N(N)C(=O)CN2C(=S)N1 (configuration not stated) | > 4 mM (inactive) |
| CNS(=O)(=O)c1cccs1 | > 4 mM (inactive) |
| Cc1ccnc(NS(=O)(=O)c2ccccc2)n1 | > 4 mM (inactive) |
| C[C@@H]1CCC2[C@](C)(CO)[C@@H](O)CC[C@]2(C)[C@@]12CC[C@@](CO)(CCO)O2 (some centres not stated) | > 4 mM (inactive) |
| c1cncc(Cn2cccc2)c1 | > 4 mM (inactive) |
| CC1=NN2C(=N)CC(=O)N=C2S1 | > 4 mM (inactive) |

| Compound | Kd |
| --- | --- |
| COC1=CC(=O)C(O)=C/C1=C\C=C\c1ccccc1 | > 4 mM (inactive) |
| O=P(O)(Cc1ccccc1)c1ccccc1 | > 4 mM (inactive) |
| COc1c2c(cc3c1OCO3)CCN(C)C2 | > 4 mM (inactive) |
| CCC(=O)Nc1cc(C(C)C)c(O)cc1C | > 4 mM (inactive) |
| Cc1nc2ccc(C(=O)N3CCSCC3)cc2s1 | > 4 mM (inactive) |
| c1coc(CNc2nc(-c3ccncc3)cs2)c1 | > 4 mM (inactive) |
| NC(N)=NOCC[C@H](N)C(=O)O | > 4 mM (inactive) |
| CC(C)=CC1C(C(=O)O)C1(C)C (configuration not stated) | > 4 mM (inactive) |
| COc1cc2c(cc1OC)[C@@]13CCN4CC5=CCOC6CC(=O)N2C1[C@H]6[C@H]5C[C@H]43 (some centres not stated) | > 4 mM (inactive) |
| c1ccc(SCc2nc(-c3ccccn3)no2)cc1 | > 4 mM (inactive) |
| NS(=O)(=O)c1ccc2c(c1)OCCO2 | > 4 mM (inactive) |
| Cc1ccc(C)n1/N=C1\NC(=O)CS1 | > 4 mM (inactive) |
| CC(=O)Oc1ccc(N2C(=O)C3C4C=CC(O4)C3C2=O)cc1 (configuration not stated) | > 4 mM (inactive) |
| Nc1nc(-c2nc3ccccc3[nH]2)cs1 | > 4 mM (inactive) |
| O=C1CCCN1C(=O)c1ccc(F)cc1 | > 4 mM (inactive) |
| NC(=O)c1c[nH]c2ccccc12 | > 4 mM (inactive) |
| NC(=O)C1CCN(C(=O)c2ccco2)CC1 | > 4 mM (inactive) |
| O=C1C2C3C=CC(C3)C2C(=O)N1CCCO (configuration not stated) | > 4 mM (inactive) |
| CC12CN([N+](=O)[O-])C3(C(N)=O)CC1CCC23C (configuration not stated) | > 4 mM (inactive) |
| COc1c(OC)c2occc2c2oc(=O)ccc12 | > 4 mM (inactive) |
| CCOC(=O)Cn1cnc2c1c(=O)[nH]c(=O)n2C | > 4 mM (inactive) |
| O=C(/C=C/C=C/c1ccc2c(c1)OCO2)N1CCCCC1 | > 4 mM (inactive) |
| O=C1c2cccnc2C(=O)N1Cc1ccco1 | > 4 mM (inactive) |
| COc1ccc(-c2noc(-c3ccco3)n2)cc1OC | > 4 mM (inactive) |

| Compound | Kd |
| --- | --- |
| COc1ncnc(N)c1[N+](=O)[O-] | > 4 mM (inactive) |
| Cc1ncc(C(=O)O)c(-c2ccccc2)n1 | > 4 mM (inactive) |
| Cc1nn2c(=O)/c(=C/c3cccc(F)c3)sc2nc1=O | > 4 mM (inactive) |
| COC(=O)c1ccccc1NC(=O)c1cc[n+]([O-])cc1 | > 4 mM (inactive) |
| NC(=O)C1(c2ccccc2)CCOCC1 | > 4 mM (inactive) |
| CC(=O)Nc1nnc(-c2ccccc2S(C)(=O)=O)o1 | > 4 mM (inactive) |
| O=C1CCC(C(=O)NCc2ccc(Cl)cc2)N1 (configuration not stated) | > 4 mM (inactive) |
| NC(=O)c1cc(N)cc(C(N)=O)c1 | > 4 mM (inactive) |
| S=c1[nH]ncn1-c1ccccc1 | > 4 mM (inactive) |
| Cn1nnc2cc(C(=O)NC3=NCCS3)ccc21 | > 4 mM (inactive) |
| CS(=O)(=O)c1ccc2nc(N)sc2c1 | > 4 mM (inactive) |
| O=C1CCC(=O)N1c1ccc(O)cc1 | > 4 mM (inactive) |
| CC(C)(C)C(=O)Nc1nnc(SCC(N)=O)s1 | > 4 mM (inactive) |
| Cc1occc1C(=O)Nc1nnc(-c2ccncc2)s1 | > 4 mM (inactive) |
| Nc1ncnc2c1ncn2CCOc1ccccc1 | > 4 mM (inactive) |
| CC1(C)C=Cc2c(cc3occ(-c4ccc5c(c4)OCO5)c(=O)c3c2O)O1 | > 4 mM (inactive) |
| CCC(C)C(=O)O[C@@H]1C[C@@]2(C)[C@H](c3ccoc3)OC(=O)CC23OC2(C)O[C@]14[C@]1(C)[C@@H](CC(=O)OC)C5(C)CC1(O)[C@](O)(C5OC(=O)C1(C)OC1C)[C@@H](OC(C)=O)[C@]34O2 (some centres not stated) | > 4 mM (inactive) |
| NC(=O)CSc1ccc(Br)cc1 | > 4 mM (inactive) |
| Cc1ccc(-c2nc(-c3cccnc3)no2)cc1 | > 4 mM (inactive) |
| CC1CCC2(OC1)OC1CC3C4CC[C@H]5C[C@@H](O)CC[C@]5(C)C4CC(=O)[C@]3(C)C1C2C (some centres not stated) | > 4 mM (inactive) |
| COc1ccc(-c2nc(N)n(C(C)=O)n2)cc1 | > 4 mM (inactive) |
| Cc1cc2c(nn1)CCc1nonc1-2 | > 4 mM (inactive) |
| CC(C)(C)P(=O)(O)c1ccccc1 | > 4 mM (inactive) |
| Cc1nnc(SCC(=O)Nc2ccccc2)[nH]c1=O | > 4 mM (inactive) |

| Compound | Kd |
| --- | --- |
| O=c1ccc(=O)n(CN2CCc3ccccc3C2)[nH]1 | > 4 mM (inactive) |
| COc1c2ccoc2cc2oc(C)cc(=O)c12 | > 4 mM (inactive) |
| NC(=O)C1CCN(c2ccc(Cl)nn2)CC1 | > 4 mM (inactive) |
| COC(=O)Nc1ccc2ncn(C)c(=O)c2c1 | > 4 mM (inactive) |
| NC1=C(c2ccccc2)C(=O)c2ccccc21 | > 4 mM (inactive) |
| O/N=C1/CCCc2nonc21 | > 4 mM (inactive) |
| CNC(=S)Nc1ncn(Cc2cccc(F)c2)n1 | > 4 mM (inactive) |
| O=C(NC1=NCCS1)c1cccc(F)c1 | > 4 mM (inactive) |
| O=c1cnnc(SCCc2ccccc2)[nH]1 | > 4 mM (inactive) |
| COc1cc([C@H]2Oc3cc([C@H]4Oc5cc(O)cc(O)c5C(=O)[C@@H]4O)ccc3O[C@@H]2CO)ccc1O | > 4 mM (inactive) |
| CN(C)N1C(=O)C2CCCCC2C1=O (configuration not stated) | > 4 mM (inactive) |
| CCC(=O)Nc1cccc(NC(C)=O)c1 | > 4 mM (inactive) |
| COC(=O)c1noc(-c2ccc(OC)cc2)n1 | > 4 mM (inactive) |
| Nc1nc2ncc(CNc3ccc(C(=O)N[C@@H](CCC(=O)O)C(=O)O)cc3)nc2c(=O)[nH]1 | > 4 mM (inactive) |
| CC[C@H]1CN2CCc3cc(OC)c(OC)cc3C2C[C@@H]1CC1NCCc2cc(OC)c(OC)cc21 (some centres not stated) | > 4 mM (inactive) |
| O=C1CCNc2cc3ccccc3cc21 | > 4 mM (inactive) |
| COC(=O)c1cccc(N)c1 | > 4 mM (inactive) |
| [O-][n+]1cc(O)c(CN2CCOCC2)c2ccccc21 | > 4 mM (inactive) |
| CC(C)NC(=S)N1CCN(S(C)(=O)=O)CC1 | > 4 mM (inactive) |
| CC(C)=CC(=O)Nc1ccc(S(N)(=O)=O)cc1 | > 4 mM (inactive) |
| C=CCn1c(=S)[nH]c2ccc(Br)cc2c1=O | > 4 mM (inactive) |

— PubChem BioAssay AID1648 (Sanford-Burnham Center for Chemical Genomics, 2009)
